# Reference: ChEMBL document CHEMBL1932955, “Discovery of potent small molecule inhibitors of DYRK1A by structure-based virtual screening and bioassay” (Bioorg Med Chem Lett, 2012)
# Biological target: Dual specificity tyrosine-phosphorylation-regulated kinase 1A (Homo sapiens, UniProt Q13627)
# Experiment: Inhibition of GST-tagged human DYRK1A using dephosphorylated MBP as substrate after 10 mins by Kinase-Glo plus luminescent kinase assay
structure (smiles),measurement,value
O=C(O[C@@H]1Cc2c(O)cc(O)cc2O[C@@H]1c1cc(O)c(O)c(O)c1)c1cc(O)c(O)c(O)c1 [EPIGALOCATECHIN GALLATE],IC50,13.4 µM
